The values below come from patent publication US6977141B2, “Direct adsorption scintillation assay for measuring enzyme activity and assaying biochemical processes” (Vicuron Pharmaceuticals Inc., priority 1998, dated 2005).

For the assay, the target named is MurA (Escherichia coli, UniProt P0A749). Nature of the assay: Direct adsorption scintillation assay (DASA) of the coupled MurA-MurB-MurC reaction, detection of enzyme inhibition. The assay is classed as biochemical. As for the experimental part: A reaction mixture was prepared, of which 2 μl contains 38 ng MurA, 34 ng MurB, 34 ng MurC, 40 pmol ATP, 40 pmol UDP-NAcGlc, 40 pmol PEP, 40 pmol NADPH, 4 pmol L-[^3H]-alanine (72.3 Ci/mmol) in 50 mM Tris-HCl, pH 8, 20 mM MgCl2, 20 mM (NH4)2SO4, 1 mM DTT, 0.005% Brij-35. The mixture was incubated at room temperature for one hour. After one hour, 0.25 μl of the reaction mixture was transferred into each well of the poly-D-lysine coated FLASHPLATE™; each well contained 100 μl of 10 mM acetic acid, pH 3.0. The scintillation was counted using the TOPCOUNT™.
Enzyme mixtures (with 60 ng MurA, 8 ng MurB and 60 ng MurC present in each 2 μl sample) were prepared. The enzyme-phosphomycin mixture was pre-incubated at room temperature for 30 minutes. The substrates, as prepared in Example 2, were then added to the mixture to start the reaction. After 30 minutes of reaction at room temperature, 0.25 μl of the reaction mixture was transferred into each well of the poly-D-lysine coated FLASHPLATE™; each well contained 100 μl of 10 mM acetic acid. The scintillation was counted using the TOPCOUNT™.

MurA, sequence (P0A749 whole entry): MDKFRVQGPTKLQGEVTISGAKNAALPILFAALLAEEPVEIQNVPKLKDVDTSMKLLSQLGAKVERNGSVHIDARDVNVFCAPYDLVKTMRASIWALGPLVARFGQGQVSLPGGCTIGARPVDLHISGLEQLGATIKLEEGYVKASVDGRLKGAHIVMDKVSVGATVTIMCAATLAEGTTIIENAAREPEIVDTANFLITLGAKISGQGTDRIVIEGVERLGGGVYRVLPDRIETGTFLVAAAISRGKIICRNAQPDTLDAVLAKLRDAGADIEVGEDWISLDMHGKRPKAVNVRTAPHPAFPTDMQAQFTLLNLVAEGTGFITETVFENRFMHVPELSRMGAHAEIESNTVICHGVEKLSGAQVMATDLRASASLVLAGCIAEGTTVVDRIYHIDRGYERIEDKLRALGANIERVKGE

As for `C[C@@H]1O[C@@H]1P(=O)(O)O` [phosphomycin], for the setting “60 ng MurA, 8 ng MurB, 60 ng MurC per 2 μl, 30 min pre-incubation at room temperature without UDP-NAcGlc, 30 min reaction, poly-D-lysine coated FLASHPLATE”, the “scintillation count with increasing inhibitor concentration (FIG. 3)” value is given as “decreased scintillation count”. For the same compound, the IC50 entry (pre-incubation carried out in the absence of UDP-NAc-Glu, qualitative statement, no number given) was “relatively high”.
